ChEMBL document CHEMBL1141818, “Annonaceous acetogenins: recent progress” (J Nat Prod, 1999)
Converted amounts (≈) assume the structure as drawn.

Experiments:
PC-3 = assay: Cytotoxicity against human PC-3 cells; assay type: functional; settings: for EC50: Homo sapiens, PC-3, read-out: ED50 (the source's name)
MIA PaCa-2 = assay: Cytotoxicity against human MIA PaCa2 cells; assay type: functional; settings: for EC50: Homo sapiens, MIA PaCa-2, read-out: ED50 (the source's name)
[1] = Toxicity in brine shrimp; assay type: organism-based; settings: artemia, in vivo
A549 = assay: Cytotoxicity against human A549 cells; assay type: functional; settings: for EC50: Homo sapiens, A549, read-out: ED50 (the source's name)
MCF7 = assay: Cytotoxicity against human MCF7 cells; assay type: functional; settings: for EC50: Homo sapiens, MCF7, read-out: ED50 (the source's name)
HT-29 = assay: Cytotoxicity against human HT-29 cells; assay type: functional; settings: for EC50: Homo sapiens, HT-29, read-out: ED50 (the source's name)
A498 = assay: Cytotoxicity against human A-498 cells; assay type: functional; settings: for EC50: Homo sapiens, A498, read-out: ED50 (the source's name)

Row | SMILES | ED50 (PC-3) | ED50 (MIA PaCa-2) | LC50 [1] [µg/mL] | ED50 (A549) | ED50 (MCF7) | EC50 (HT-29) [µg/mL] | ED50 (A498) [µg/mL] | EC50 (PC-3) [µg/mL] | EC50 (A549) [µg/mL] | EC50 (A498) [µg/mL] | EC50 (MIA PaCa-2) [µg/mL] | EC50 (MCF7) [µg/mL] | ED50 (HT-29) [×10⁻⁶ ug/ml]
1 | CCCCC[C@H](O)[C@H](O)CCC[C@H](O)[C@H]1CC[C@H]([C@H]2CC[C@H]([C@H](O)CCCCCCCCCCCCC3=C[C@H](C)OC3=O)O2)O1 (stereo in doubt; 91) [PURPUREDIOLIN] | 1.1 µg/mL (≈ 1.72 µM) | 3 µg/mL (≈ 4.7 µM) | 0.43 (≈ 0.673 µM) | 1.6 µg/mL (≈ 2.5 µM) | 2.5 ×10⁻⁴ ug/ml | 0.0046 (≈ 0.0072 µM) | 1.5 (≈ 2.35 µM) |  |  |  |  |  | 
2 | CCCCCCCCCCCC[C@H](O)[C@H]1CC[C@H]([C@H](O)CCCC[C@H](O)CCCCCCC[C@@H](O)CC2=C[C@H](C)OC2=O)O1 [ANNOGLACIN A] |  | 5.1 ×10⁻⁷ ug/ml | 0.49 (≈ 0.784 µM) |  | 9.6 ×10⁻⁴ ug/ml | 0.0053 (≈ 0.00848 µM) |  | 0.002 (≈ 0.0032 µM) | 0.0053 (≈ 0.00848 µM) | 0.9 (≈ 1.44 µM) |  |  | 
3 | CCCCCCCCCCCC[C@@H](O)[C@H]1CC[C@H]([C@H](O)CCCC[C@H](O)CCCCCCC[C@@H](O)CC2=C[C@H](C)OC2=O)O1 [ANNOGLACIN B] | 8.4 ×10⁻⁴ ug/ml | 1.2 ×10⁻⁶ ug/ml | 0.17 (≈ 0.272 µM) |  | 6.2 ×10⁻⁴ ug/ml | 0.0053 (≈ 0.00848 µM) |  |  | 0.0028 (≈ 0.00448 µM) | 0.4 (≈ 0.64 µM) |  |  | 
4 | CCCCCCCCCCCC/C=C\CC[C@@H](O)[C@H](O)CCCCCCC(=O)CCCCCCCC1=C[C@H](C)OC1=O [ANNOJAHNIN] |  |  | 11 (≈ 18.6 µM) |  |  | 0.059 (≈ 0.0998 µM) |  | 0.016 (≈ 0.0271 µM) | 1.5 (≈ 2.54 µM) | 4.9 (≈ 8.29 µM) | 0.023 (≈ 0.0389 µM) | 2.8 (≈ 4.74 µM) | 
5 | CCCCCCCCCCCC[C@@H](O)[C@H]1CC[C@H]([C@H](O)CCC[C@@H](O)[C@@H](O)CCCCC[C@@H](O)CC2=C[C@H](C)OC2=O)O1 [ANNOMURICIN E] |  |  | 18.4 (≈ 30 µM) |  |  | 0.67 (≈ 1.09 µM) |  | 0.15 (≈ 0.245 µM) | 0.11 (≈ 0.179 µM) | 1.4 (≈ 2.28 µM) | 0.24 (≈ 0.392 µM) | 0.15 (≈ 0.245 µM) | 
6 | CCCCCCCCCCCC[C@@H](O)[C@H](O)CC[C@H](O)[C@@H]1CC[C@@H](C[C@H](O)CCCCC[C@@H](O)CC2=C[C@H](C)OC2=O)O1 [ANNOPENTOCIN A] |  |  | 8.9 (≈ 14.5 µM) |  |  | 1.6 (≈ 2.61 µM) |  | 1.1 (≈ 1.79 µM) | 0.17 (≈ 0.277 µM) | 0.61 (≈ 0.995 µM) | 0.036 (≈ 0.0587 µM) | 18 (≈ 29.4 µM) | 
7 | CCCCCCCCCCCC[C@H](O)[C@@H](O)CC[C@H](O)[C@@H]1CC[C@@H](C[C@H](O)CCCCC[C@@H](O)CC2=C[C@H](C)OC2=O)O1 [ANNOPENTOCIN B] |  |  | 0.11 (≈ 0.179 µM) |  |  | 1.6 (≈ 2.61 µM) |  | 0.21 (≈ 0.343 µM) | 0.027 (≈ 0.0441 µM) | 0.38 (≈ 0.62 µM) | 0.16 (≈ 0.261 µM) | 3.6 (≈ 5.87 µM) | 
8 | CCCCCCCCCCCC[C@H](O)[C@H](O)CC[C@H](O)[C@@H]1CC[C@@H](C[C@H](O)CCCCC[C@@H](O)CC2=C[C@H](C)OC2=O)O1 [ANNOPENTOCIN C] |  |  | 14 (≈ 22.8 µM) |  |  | 1.2 (≈ 1.96 µM) |  | 0.23 (≈ 0.375 µM) | 0.021 (≈ 0.0343 µM) | 0.26 (≈ 0.424 µM) | 0.43 (≈ 0.702 µM) | 0.3 (≈ 0.489 µM) | 
9 | CC[C@H](O)[C@H](O)CCCCCC[C@H](O)[C@H]1CC[C@H]([C@H]2CC[C@H]([C@H](O)CCCCCCCCCCCCC3=C[C@H](C)OC3=O)O2)O1 [BULLATETROCIN] |  |  | 0.31 (≈ 0.485 µM) |  |  | 0.33 (≈ 0.516 µM) |  | > 1 | 0.35 (≈ 0.548 µM) | > 1 | > 1 | 0.5 (≈ 0.783 µM) | 
10 | CCCCCCCCCC[C@H](O)[C@H](O)CCCC[C@H]1CC[C@H]([C@H]2CC[C@H]([C@H](O)CCCCC[C@@H](O)CC3=C[C@H](C)OC3=O)O2)O1 [GLABRACIN A] |  |  | 0.13 (≈ 0.203 µM) | 2.8 ×10⁻⁶ ug/ml | 4.2 ×10⁻⁶ ug/ml |  |  | 1.1 (≈ 1.72 µM) |  | 0.001 (≈ 0.00157 µM) | 1.8 (≈ 2.82 µM) |  | 5.7
11 | CCCCCCCCCC[C@@H](O)[C@H]1CC[C@H]([C@H](O)CCCC[C@H](O)CCCCCCC[C@@H](O)CC2=C[C@H](C)OC2=O)O1 [GLACIN A] |  |  | 0.11 (≈ 0.184 µM) |  |  | 2.3 (≈ 3.85 µM) |  | 0.0098 (≈ 0.0164 µM) | 1.5 (≈ 2.51 µM) | 1.3 (≈ 2.18 µM) | 0.0086 (≈ 0.0144 µM) | 0.0044 (≈ 0.00737 µM) | 
12 | CCCCCCCCCCCCCCCC[C@@H](O)[C@H]1CC[C@H]([C@H](O)CC[C@H](O)CCCCC[C@@H](O)CC2=C[C@H](C)OC2=O)O1 [GONIOTETRACIN] |  |  | 0.2 (≈ 0.32 µM) |  |  | 1.5 (≈ 2.4 µM) |  | 0.021 (≈ 0.0336 µM) | 0.39 (≈ 0.624 µM) | 1.5 (≈ 2.4 µM) | 0.026 (≈ 0.0416 µM) | 1.7 (≈ 2.72 µM) | 
13 | CCCCCCCCCCCCC(=O)C[C@@H]1C[C@@H](O)[C@@H](CC[C@H](O)[C@@H]2CC[C@@H](CCCCC[C@@H](O)CC3=C[C@H](C)OC3=O)O2)O1 [GONIOTRIOCIN] |  |  | 2.7 (≈ 4.24 µM) |  | 3.3 ×10⁻⁵ ug/ml | 0.0012 (≈ 0.00188 µM) |  | 0.26 (≈ 0.408 µM) | 0.033 (≈ 0.0518 µM) | 1.1 (≈ 1.73 µM) | 1.4 (≈ 2.2 µM) |  | 
14 | CCCCCCCCCC[C@@H]1O[C@H]([C@@H]2CC[C@H]([C@H](O)CCCCCCCCCC[C@@H](O)CC3=C[C@H](C)OC3=O)O2)CC[C@H]1O [JIMENEZIN] | 2.8 ×10⁻⁴ ug/ml | 1.7 ×10⁻⁴ ug/ml | 0.0057 (≈ 0.00915 µM) |  |  | 0.0043 (≈ 0.0069 µM) |  |  | 0.016 (≈ 0.0257 µM) | 0.049 (≈ 0.0787 µM) |  | > 0.1 | 
15 | CCCCCCCCCCCCCC[C@H](O)CCCCCCC[C@H](O)CCCCC[C@@H](O)CC1=C[C@H](C)OC1=O [LONGANIN] |  |  | 12 (≈ 21.2 µM) |  |  | 0.61 (≈ 1.08 µM) |  | 0.4 (≈ 0.706 µM) | 0.011 (≈ 0.0194 µM) | 0.039 (≈ 0.0688 µM) | 0.011 (≈ 0.0194 µM) | 3.4 (≈ 6 µM) | 
16 | CCCCCCCCCCCC[C@@H](O)[C@H]1CC[C@H]([C@H](O)CCC(O)CCCC(O)CCC[C@@H](O)CC2=C[C@H](C)OC2=O)O1 (some centres not stated) [MURICAPENTOCIN] |  |  | 1.8 (≈ 2.94 µM) |  |  | 0.071 (≈ 0.116 µM) |  | 0.45 (≈ 0.734 µM) | 0.19 (≈ 0.31 µM) | 1.7 (≈ 2.77 µM) | 0.05 (≈ 0.0816 µM) | 1.9 (≈ 3.1 µM) | 
17 | CCCCCCCCCCCC[C@@H](O)[C@@H](O)CC[C@H](O)[C@@H]1CC[C@@H](C[C@@H](O)C[C@@H](O)CCC[C@@H](O)CC2=C[C@H](C)OC2=O)O1 [MURICOREACIN] |  |  | 19 (≈ 30.2 µM) |  |  | 0.57 (≈ 0.906 µM) |  | 0.025 (≈ 0.0398 µM) | 0.0023 (≈ 0.00366 µM) | 0.71 (≈ 1.13 µM) | 2.3 (≈ 3.66 µM) | 1.3 (≈ 2.07 µM) | 
18 | CCCCCCCCCCCC[C@@H](O)[C@@H](O)CC[C@H](O)[C@@H]1CC[C@@H](CCC[C@@H](O)[C@H](O)CC[C@@H](O)CC2=C[C@H](C)OC2=O)O1 [MURIHEXOCIN] |  |  | 10 (≈ 15.9 µM) |  |  | 1.3 (≈ 2.07 µM) |  | 0.86 (≈ 1.37 µM) | 1.1 (≈ 1.75 µM) | 2.5 (≈ 3.98 µM) | 0.49 (≈ 0.779 µM) | 3.8 (≈ 6.04 µM) | 
19 | CCCCCCCCCCCCCC[C@H]1O[C@@H]([C@H](O)CC[C@H](O)CCCCC[C@@H](O)CC2=C[C@H](C)OC2=O)CC[C@H]1O [PYRAGONICIN] |  |  | 0.9 (≈ 1.51 µM) |  |  | 2.8 (≈ 4.69 µM) |  | 0.12 (≈ 0.201 µM) | 2 (≈ 3.35 µM) | 0.13 (≈ 0.218 µM) | 0.058 (≈ 0.0972 µM) | 1.6 (≈ 2.68 µM) | 
20 | CCCCCCCCCCCC[C@H]1O[C@@H]([C@H](O)CCCC[C@H](O)CCCCC[C@@H](O)CC2=C[C@H](C)OC2=O)CC[C@H]1O [PYRANICIN] |  |  | 0.3 (≈ 0.503 µM) |  |  | 1.2 (≈ 2.01 µM) |  | 0.41 (≈ 0.687 µM) | 0.28 (≈ 0.469 µM) | 0.18 (≈ 0.302 µM) | 0.0013 (≈ 0.00218 µM) | 0.39 (≈ 0.653 µM) | 
21 | CCCCCCCCCCCC[C@@H](O)[C@H]1CCC(C2CCC(CC(O)CCCCC[C@@H](O)CC3=C[C@H](C)OC3=O)O2)O1 (some centres not stated) [ROLLINACIN] |  |  | 3.5 (≈ 5.88 µM) |  |  | 2.1 (≈ 3.53 µM) |  | 2.5 (≈ 4.2 µM) | 0.046 (≈ 0.0773 µM) | 1.6 (≈ 2.69 µM) | 2 (≈ 3.36 µM) | 0.16 (≈ 0.269 µM) | 
